According to patent publication US9801961B2, “2-phenylimidazo[1,2-a]pyrimidines as imaging agents” (Hoffmann-La Roche Inc., priority 2013, dated 2017):

test system: native tau aggregates; experiment: TAU radioligand in vitro displacement assay ([3H]T808 autoradiography on human AD brain sections); assay type: binding; conditions: compound 10 nM, radioligand [3H]T808 10 nM, 50 mM Tris pH 7.4, room temperature, 30 min
Method: TAU Radioligand-In-Vitro Displacement Assay
This in vitro binding assay assesses the affinity of compounds for native tau aggregates. The compounds are co-incubated with the well-established tau specific radioligand [^3H]T808 and the compound's displacement potency of [^3H]T808 binding is determined by in vitro autoradiography using human Alzheimer's disease (AD) brain sections (FIG. 1).
AD human brains are purchased from Banner Sun Health Research Institute (Sun City, Ariz., USA). Pathological diagnosis of AD is made according to standard NIA-Reagan Institute criteria based on neuropathological data. The radioligand [^3H]T808 was synthesized in-house ([^3H]-2-[4-(2-Fluoro-ethyl)-piperidin-1-yl]-benzo[4,5]imidazo[1,2-a]pyrimidine, radiochemical purity 99.0%). As a reference cold T808 is used (2-[4-(2-Fluoro-ethyl)-piperidin-1-yl]-benzo[4,5]imidazo[1,2-a]pyrimidine). For the autoradiography FujiFilm Imaging Plates (BAS-IP TR 2025) are exposed to the sections and read with a FujiFilm IP reader (BAS-5000).
Ten μm thick human AD brain sections are generated with a cryostat (Leica CM3050) at −17° C. chamber temperature and −15° C. object temperature. Sections are transferred to Histobond+microscope slides (Marienfeld Laboratory Glasware). After drying for 3 hours at room temperature the sections are stored at −20° C. The sections are incubated with the radioligand (10 nM) and the respective cold compound (at various concentrations) in 50 mM Tris buffer, pH 7.4 at room temperature for 30 min. After washing 3×10 min at 4° C. in 50 mM Tris buffer, pH 7.4 and 3 quick dips in H2O dist. at 4° C. the sections are dried at 4° C. for 3 h. The sections are placed in a FujiFilm Cassette (BAS 2025), exposed with an Imaging Plate for five days and afterwards scanned with a resolution of […].
The signal intensity (Dens—PSL/mm2) in the region of interest (ROI) of the autoradiogram is quantified with the software MCID analysis (version 7.0, Imaging Research Inc.). The specific binding (SB) of [^3H]T808 binding in absence or in presence of a compound is calculated by subtracting the non-specific binding signal in the white matter, thus yielding SB[3H]T808 only and SBcompund. The % displacement by the various compounds is calculated as following: % displacement=100−(SBcompund/SB[3H]T808 only)*100.
In each experiment cold T808 is used as a positive internal control. Co-incubation of equimolar amounts of hot and cold T808 is expected to reduce specific binding by approximately 50%.

Structure (SMILES) | % displacement of [3H]T808 (10 nM) at 10 nM
CN(C)c1ccn2cc(-c3ccc4c(c3)OCO4)nc2n1 [Example 37, 2-(1,3-Benzodioxol-5-yl)-N,N-dimethylimidazo[1,2-a]pyrimidin-7-amine] | 46%
CN(C)c1ccn2cc(-c3ccc4c(c3)OCCO4)nc2n1 [Example 38, 2-(2,3-Dihydro-1,4-benzodioxin-6-yl)-N,N-dimethylimidazo[1,2-a]pyrimidin-7-amine] | 37%
COc1cccc(-c2cn3ccc(N4CCOCC4)nc3n2)c1 [Example 41, 4-[2-(3-Methoxyphenyl)imidazo[1,2-a]pyrimidin-7-yl]morpholine] | 16%
Cc1ccc(-c2cn3ccc(N4CCOCC4)nc3n2)cc1 [Example 42, 4-[2-(4-Methylphenyl)imidazo[1,2-a]pyrimidin-7-yl]morpholine] | 8%
COc1ccc(-c2cn3ccc(N4CCCC4)nc3n2)cc1 [Example 43, 2-(4-Methoxyphenyl)-7-pyrrolidin-1-ylimidazo[1,2-a]pyrimidine] | 29%
Cc1ccc(-c2cn3ccc(N4CCCC4)nc3n2)cc1 [Example 44, 2-(4-Methylphenyl)-7-pyrrolidin-1-ylimidazo[1,2-a]pyrimidine] | 28%
CN(C)c1ccn2cc(-c3ccc(N4CCOCC4)cc3)nc2n1 [Example 45, N,N-Dimethyl-2-(4-morpholin-4-ylphenyl)imidazo[1,2-a]pyrimidin-7-amine] | 29%
CN(C)c1ccc(-c2cn3ccc(N(C)C)nc3n2)cc1 [Example 46, 2-[4-(Dimethylamino)phenyl]-N,N-dimethylimidazo[1,2-a]pyrimidin-7-amine] | 43%
COc1cccc(-c2cn3ccc(N4CCCC4)nc3n2)c1 [Example 47, 2-(3-Methoxyphenyl)-7-pyrrolidin-1-ylimidazo[1,2-a]pyrimidine] | 20%
COc1ccc(-c2cn3ccc(N4CCCCC4)nc3n2)cc1 [Example 49, 2-(4-Methoxyphenyl)-7-piperidin-1-ylimidazo[1,2-a]pyrimidine] | 17%
COc1cccc(-c2cn3ccc(N4CCCCC4)nc3n2)c1 [Example 50, 2-(3-Methoxyphenyl)-7-piperidin-1-ylimidazo[1,2-a]pyrimidine] | 14%
Cc1ccc(-c2cn3ccc(N4CCCCC4)nc3n2)cc1 [Example 51, 2-(4-Methylphenyl)-7-piperidin-1-ylimidazo[1,2-a]pyrimidine] | 8%
COc1ccc(-c2cn3ccc(N4CCCCC4)nc3n2)cc1OC [Example 53, 2-(3,4-Dimethoxyphenyl)-7-piperidin-1-ylimidazo[1,2-a]pyrimidine] | 6%
FCCC1CCN(c2ccn3cc(-c4ccccc4)nc3n2)CC1 [Example 54, 7-[4-(2-Fluoroethyl)piperidin-1-yl]-2-phenylimidazo[1,2-a]pyrimidine] | 14%
COc1cccc(-c2cn3ccc(N4CCC(CCF)CC4)nc3n2)c1 [Example 55, 7-[4-(2-Fluoroethyl)piperidin-1-yl]-2-(3-methoxyphenyl)imidazo[1,2-a]pyrimidine] | 10%
COc1ccc(-c2cn3ccc(N4CCC(CCF)CC4)nc3n2)cc1 [Example 56, 7-[4-(2-Fluoroethyl)piperidin-1-yl]-2-(4-methoxyphenyl)imidazo[1,2-a]pyrimidine] | 9%
FCCC1CCN(c2ccn3cc(-c4ccc5c(c4)OCO5)nc3n2)CC1 [Example 57, 2-(1,3-Benzodioxol-5-yl)-7-[4-(2-fluoroethyl)piperidin-1-yl]imidazo[1,2-a]pyrimidine] | 9%
FCCC1CCN(c2ccn3cc(-c4ccc5c(c4)OCCO5)nc3n2)CC1 [Example 58, 2-(2,3-Dihydro-1,4-benzodioxin-6-yl)-7-[4-(2-fluoroethyl)piperidin-1-yl]imidazo[1,2-a]pyrimidine] | 18%
Cc1ccc(-c2cn3ccc(N4CCC(CCF)CC4)nc3n2)cc1 [Example 60, 7-[4-(2-Fluoroethyl)piperidin-1-yl]-2-(4-methylphenyl)imidazo[1,2-a]pyrimidine] | 15%
FCCC1CCN(c2ccn3cc(-c4ccc(N5CCOCC5)cc4)nc3n2)CC1 [Example 61, 4-[4-[7-[4-(2-Fluoroethyl)piperidin-1-yl]imidazo[1,2-a]pyrimidin-2-yl]phenyl]morpholine] | 10%
COc1ccc(-c2cn3ccc(N4CC5(CCC5)C4)nc3n2)cc1 [Example 65, 7-(2-Azaspiro[3.3]heptan-2-yl)-2-(4-methoxyphenyl)imidazo[1,2-a]pyrimidine] | 11%
CCN(CC)c1ccn2cc(-c3ccc(OC)cc3)nc2n1 [Example 67, N,N-Diethyl-2-(4-methoxyphenyl)imidazo[1,2-a]pyrimidin-7-amine] | 19%
COc1ccc(-c2cn3ccc(N4CCC4)nc3n2)cc1 [Example 69, 7-(Azetidin-1-yl)-2-(4-methoxyphenyl)imidazo[1,2-a]pyrimidine] | 40%
COc1ccc(-c2cn3ccc(N4CC(F)C4)nc3n2)cc1 [Example 70, 7-(3-Fluoroazetidin-1-yl)-2-(4-methoxyphenyl)imidazo[1,2-a]pyrimidine] | 25%
FC1CN(c2ccn3cc(-c4ccccc4)nc3n2)C1 [Example 71, 7-(3-Fluoroazetidin-1-yl)-2-phenylimidazo[1,2-a]pyrimidine] | 18%

Results, then the compound that gave them:

% displacement of [3H]T808 (10 nM) at 10 nM | Structure (SMILES)
47% | COc1ccc(-c2cn3ccc(N(C)C)nc3n2)cc1 [Example 36, 2-(4-Methoxyphenyl)-N,N-dimethylimidazo[1,2-a]pyrimidin-7-amine]
49% | Cc1ccc(-c2cn3ccc(N(C)C)nc3n2)cc1 [Example 39, N,N-Dimethyl-2-(4-methylphenyl)imidazo[1,2-a]pyrimidin-7-amine]
51% | Cc1cccc(-c2cn3ccc(N(C)C)nc3n2)c1 [Example 40, N,N-Dimethyl-2-(3-methylphenyl)imidazo[1,2-a]pyrimidin-7-amine]
23% | Cc1cccc(-c2cn3ccc(N4CCCC4)nc3n2)c1 [Example 48, 2-(3-Methylphenyl)-7-pyrrolidin-1-ylimidazo[1,2-a]pyrimidine]
14% | Cc1cccc(-c2cn3ccc(N4CCCCC4)nc3n2)c1 [Example 52, 2-(3-Methylphenyl)-7-piperidin-1-ylimidazo[1,2-a]pyrimidine]
10% | Cc1cccc(-c2cn3ccc(N4CCC(CCF)CC4)nc3n2)c1 [Example 59, 7-[4-(2-Fluoroethyl)piperidin-1-yl]-2-(3-methylphenyl)imidazo[1,2-a]pyrimidine]
48% | CNc1ccn2cc(-c3cccc(C)c3)nc2n1 [Example 62, N-Methyl-2-(3-methylphenyl)imidazo[1,2-a]pyrimidin-7-amine]
15% | COc1ccc(-c2cn3ccc(N(C)CCOCCF)nc3n2)cc1 [Example 64, N-[2-(2-Fluoroethoxy)ethyl]-2-(4-methoxyphenyl)-N-methylimidazo[1,2-a]pyrimidin-7-amine]
34% | CCN(C)c1ccn2cc(-c3ccc(OC)cc3)nc2n1 [Example 66, N-Ethyl-2-(4-methoxyphenyl)-N-methylimidazo[1,2-a]pyrimidin-7-amine]
14% | Cc1cccc(-c2cn3ccc(N(C)CCOCCF)nc3n2)c1 [Example 68, N-[2-(2-Fluoroethoxy)ethyl]-N-methyl-2-(3-methylphenyl)imidazo[1,2-a]pyrimidin-7-amine]
18% | Cc1cccc(-c2cn3ccc(N4CC(F)C4)nc3n2)c1 [Example 72, 7-(3-Fluoroazetidin-1-yl)-2-(3-methylphenyl)imidazo[1,2-a]pyrimidine]

same assay, conditions: compound 1 uM, radioligand [3H]T808 10 nM, 50 mM Tris pH 7.4, room temperature, 30 min

% displacement of [3H]T808 (10 nM) at 1 uM | Structure (SMILES)
70% | FC1CCN(c2ccn3cc(-c4ccsc4)nc3n2)CC1 [Example 63, 7-(4-Fluoropiperidin-1-yl)-2-thiophen-3-ylimidazo[1,2-a]pyrimidine]
